# Source: the CheMixHub viscosity set
# ± gives the uncertainty stated by the source.
# Test: xn = mol fraction of the nth substance listed
smiles,measurement,setting,value
O=[N+]([O-])c1ccccc1 + CC(C)CO,viscosity,"298.15 K, 101.33 kPa, x1 = 0.063",2.804 ± 0.13 mPa·s
same,viscosity,"298.15 K, 101.33 kPa, x1 = 0.1521",2.416 ± 0.11 mPa·s
same,viscosity,"298.15 K, 101.33 kPa, x1 = 0.2051",2.228 ± 0.1 mPa·s
same,viscosity,"298.15 K, 101.33 kPa, x1 = 0.2864",2.054 ± 0.094 mPa·s
same,viscosity,"298.15 K, 101.33 kPa, x1 = 0.376",1.884 ± 0.087 mPa·s
same,viscosity,"298.15 K, 101.33 kPa, x1 = 0.4746",1.811 ± 0.084 mPa·s
same,viscosity,"298.15 K, 101.33 kPa, x1 = 0.6038",1.755 ± 0.082 mPa·s
same,viscosity,"298.15 K, 101.33 kPa, x1 = 0.7066",1.701 ± 0.08 mPa·s
same,viscosity,"298.15 K, 101.33 kPa, x1 = 0.8442",1.679 ± 0.079 mPa·s
same,viscosity,"303.15 K, 101.33 kPa, x1 = 0.063",2.423 ± 0.11 mPa·s
same,viscosity,"303.15 K, 101.33 kPa, x1 = 0.1521",2.072 ± 0.095 mPa·s
same,viscosity,"303.15 K, 101.33 kPa, x1 = 0.2051",1.956 ± 0.09 mPa·s
same,viscosity,"303.15 K, 101.33 kPa, x1 = 0.2864",1.819 ± 0.084 mPa·s
same,viscosity,"303.15 K, 101.33 kPa, x1 = 0.376",1.677 ± 0.078 mPa·s
same,viscosity,"303.15 K, 101.33 kPa, x1 = 0.4746",1.596 ± 0.075 mPa·s
same,viscosity,"303.15 K, 101.33 kPa, x1 = 0.6038",1.538 ± 0.072 mPa·s
same,viscosity,"303.15 K, 101.33 kPa, x1 = 0.7066",1.495 ± 0.071 mPa·s
same,viscosity,"303.15 K, 101.33 kPa, x1 = 0.8442",1.517 ± 0.072 mPa·s
CCCCCCCC + CC(C)O,viscosity,"293.15 K, 101.32 kPa, x2 = 0.0518",0.539 ± 0.008 mPa·s
same,viscosity,"293.15 K, 101.32 kPa, x2 = 0.0896",0.542 ± 0.008 mPa·s
same,viscosity,"293.15 K, 101.32 kPa, x2 = 0.212",0.562 ± 0.008 mPa·s
same,viscosity,"293.15 K, 101.32 kPa, x2 = 0.282",0.58 ± 0.008 mPa·s
same,viscosity,"293.15 K, 101.32 kPa, x2 = 0.4103",0.644 ± 0.009 mPa·s
same,viscosity,"293.15 K, 101.32 kPa, x2 = 0.6027",0.83 ± 0.011 mPa·s
same,viscosity,"293.15 K, 101.32 kPa, x2 = 0.6988",0.985 ± 0.013 mPa·s
same,viscosity,"293.15 K, 101.32 kPa, x2 = 0.7988",1.225 ± 0.017 mPa·s
same,viscosity,"293.15 K, 101.32 kPa, x2 = 0.9007",1.624 ± 0.022 mPa·s
same,viscosity,"293.15 K, 101.32 kPa, x2 = 0.9496",1.961 ± 0.026 mPa·s
same,viscosity,"298.15 K, 101 kPa, x2 = 0.0569",0.515 ± 0.005 mPa·s
same,viscosity,"298.15 K, 101 kPa, x2 = 0.1093",0.518 ± 0.005 mPa·s
same,viscosity,"298.15 K, 101 kPa, x2 = 0.1441",0.524 ± 0.005 mPa·s
same,viscosity,"298.15 K, 101 kPa, x2 = 0.2343",0.542 ± 0.005 mPa·s
same,viscosity,"298.15 K, 101 kPa, x2 = 0.3228",0.568 ± 0.005 mPa·s
same,viscosity,"298.15 K, 101 kPa, x2 = 0.3517",0.579 ± 0.006 mPa·s
same,viscosity,"298.15 K, 101 kPa, x2 = 0.4196",0.611 ± 0.006 mPa·s
same,viscosity,"298.15 K, 101 kPa, x2 = 0.5016",0.665 ± 0.006 mPa·s
same,viscosity,"298.15 K, 101 kPa, x2 = 0.5603",0.717 ± 0.006 mPa·s
same,viscosity,"298.15 K, 101 kPa, x2 = 0.6122",0.773 ± 0.007 mPa·s
same,viscosity,"298.15 K, 101 kPa, x2 = 0.7012",0.9 ± 0.008 mPa·s
same,viscosity,"298.15 K, 101 kPa, x2 = 0.7937",1.088 ± 0.009 mPa·s
same,viscosity,"298.15 K, 101 kPa, x2 = 0.9122",1.496 ± 0.012 mPa·s
same,viscosity,"298.15 K, 101 kPa, x2 = 0.9475",1.68 ± 0.013 mPa·s
same,viscosity,"298.15 K, 101.32 kPa, x2 = 0.0518",0.507 ± 0.007 mPa·s
same,viscosity,"298.15 K, 101.32 kPa, x2 = 0.0896",0.51 ± 0.007 mPa·s
same,viscosity,"298.15 K, 101.32 kPa, x2 = 0.212",0.526 ± 0.007 mPa·s
same,viscosity,"298.15 K, 101.32 kPa, x2 = 0.282",0.542 ± 0.008 mPa·s
same,viscosity,"298.15 K, 101.32 kPa, x2 = 0.4103",0.596 ± 0.008 mPa·s
same,viscosity,"298.15 K, 101.32 kPa, x2 = 0.6027",0.752 ± 0.01 mPa·s
same,viscosity,"298.15 K, 101.32 kPa, x2 = 0.6988",0.883 ± 0.012 mPa·s
same,viscosity,"298.15 K, 101.32 kPa, x2 = 0.7988",1.088 ± 0.014 mPa·s
same,viscosity,"298.15 K, 101.32 kPa, x2 = 0.9007",1.429 ± 0.019 mPa·s
same,viscosity,"298.15 K, 101.32 kPa, x2 = 0.9496",1.69 ± 0.022 mPa·s
same,viscosity,"303.15 K, 101.32 kPa, x2 = 0.0518",0.476 ± 0.007 mPa·s
same,viscosity,"303.15 K, 101.32 kPa, x2 = 0.0896",0.479 ± 0.007 mPa·s
same,viscosity,"303.15 K, 101.32 kPa, x2 = 0.212",0.494 ± 0.007 mPa·s
same,viscosity,"303.15 K, 101.32 kPa, x2 = 0.282",0.507 ± 0.007 mPa·s
same,viscosity,"303.15 K, 101.32 kPa, x2 = 0.4103",0.552 ± 0.008 mPa·s
same,viscosity,"303.15 K, 101.32 kPa, x2 = 0.6027",0.685 ± 0.009 mPa·s
same,viscosity,"303.15 K, 101.32 kPa, x2 = 0.6988",0.795 ± 0.011 mPa·s
same,viscosity,"303.15 K, 101.32 kPa, x2 = 0.7988",0.967 ± 0.013 mPa·s
same,viscosity,"303.15 K, 101.32 kPa, x2 = 0.9007",1.25 ± 0.016 mPa·s
same,viscosity,"303.15 K, 101.32 kPa, x2 = 0.9496",1.482 ± 0.019 mPa·s
same,viscosity,"308.15 K, 101 kPa, x2 = 0.0569",0.446 ± 0.005 mPa·s
same,viscosity,"308.15 K, 101 kPa, x2 = 0.1093",0.45 ± 0.005 mPa·s
same,viscosity,"308.15 K, 101 kPa, x2 = 0.1441",0.451 ± 0.005 mPa·s
same,viscosity,"308.15 K, 101 kPa, x2 = 0.2343",0.466 ± 0.005 mPa·s
same,viscosity,"308.15 K, 101 kPa, x2 = 0.3228",0.486 ± 0.005 mPa·s
same,viscosity,"308.15 K, 101 kPa, x2 = 0.3517",0.497 ± 0.005 mPa·s
same,viscosity,"308.15 K, 101 kPa, x2 = 0.4196",0.523 ± 0.005 mPa·s
same,viscosity,"308.15 K, 101 kPa, x2 = 0.5016",0.561 ± 0.005 mPa·s
same,viscosity,"308.15 K, 101 kPa, x2 = 0.5603",0.601 ± 0.006 mPa·s
same,viscosity,"308.15 K, 101 kPa, x2 = 0.6122",0.643 ± 0.006 mPa·s
same,viscosity,"308.15 K, 101 kPa, x2 = 0.7012",0.732 ± 0.006 mPa·s
same,viscosity,"308.15 K, 101 kPa, x2 = 0.7937",0.877 ± 0.007 mPa·s
same,viscosity,"308.15 K, 101 kPa, x2 = 0.9122",1.177 ± 0.009 mPa·s
same,viscosity,"308.15 K, 101 kPa, x2 = 0.9475",1.315 ± 0.01 mPa·s
